Active and inactive are the calls of the source. The calls are words filed in the database; no cut-off is given here.
Key:
RPMI-8226 = assay: Anti-cancer activity against human RPMI-8226 cells assessed as cell growth inhibition measured after 48 hrs by SRB method; type: functional, cell-based
LOX IMVI = assay: Anti-cancer activity against human LOX IMVI cells assessed as cell growth inhibition measured after 48 hrs by SRB method; type: functional, cell-based
CCRF-CEM = assay: Anti-cancer activity against human CCRF-CEM cells assessed as cell growth inhibition measured after 48 hrs by SRB assay; type: functional, cell-based
COLO 205 = assay: Anti-cancer activity against human COLO205 cells assessed as cell growth inhibition measured after 48 hrs by SRB method; type: functional, cell-based
HCC 2998 = assay: Anti-cancer activity against human HCC2998 cells assessed as cell growth inhibition measured after 48 hrs by SRB method; type: functional, cell-based
SW-620 = assay: Anti-cancer activity against human SW-620 cells assessed as cell growth inhibition measured after 48 hrs by SRB method; type: functional, cell-based
SF-268 = assay: Anti-cancer activity against human SF-268 cells assessed as cell growth inhibition measured after 48 hrs by SRB method; type: functional, cell-based
SNB-75 = assay: Anti-cancer activity against human SNB-75 cells assessed as cell growth inhibition measured after 48 hrs by SRB method; type: functional, cell-based
M14 = assay: Anti-cancer activity against human M14 cells assessed as cell growth inhibition measured after 48 hrs by SRB method; type: functional, cell-based
MDA-MB-435 = assay: Anti-cancer activity against human MDA-MB-435 cells assessed as cell growth inhibition measured after 48 hrs by SRB method; type: functional, cell-based
SK-MEL-2 = assay: Anti-cancer activity against human SK-MEL-2 cells assessed as cell growth inhibition measured after 48 hrs by SRB method; type: functional, cell-based
UACC-257 = assay: Anti-cancer activity against human UACC-257 cells assessed as cell growth inhibition measured after 48 hrs by SRB method; type: functional, cell-based
UACC-62 = assay: Anti-cancer activity against human UACC-62 cells assessed as cell growth inhibition measured after 48 hrs by SRB method; type: functional, cell-based
IGROV-1 = assay: Anti-cancer activity against human IGROV1 cells assessed as cell growth inhibition measured after 48 hrs by SRB method; type: functional, cell-based
MCF7 = assay: Anti-cancer activity against human MCF-7 cells assessed as cell growth inhibition measured after 48 hrs by SRB method; type: functional, cell-based
MDA-MB-468 = assay: Anti-cancer activity against human MDA-MB-468 cells assessed as cell growth inhibition measured after 48 hrs by SRB method; type: functional, cell-based
HOP-62 = assay: Anti-cancer activity against human HOP-62 cells assessed as cell growth inhibition measured after 48 hrs by SRB method; type: functional, cell-based
786-0 = assay: Anti-cancer activity against human 786-0 cells assessed as cell growth inhibition measured after 48 hrs by SRB method; type: functional, cell-based
CAKI-1 = assay: Anti-cancer activity against human CAKI-1 cells assessed as cell growth inhibition measured after 48 hrs by SRB method; type: functional, cell-based
RXF 393 = assay: Anti-cancer activity against human RXF 393 cells assessed as cell growth inhibition measured after 48 hrs by SRB method; type: functional, cell-based
TK-10 = assay: Anti-cancer activity against human TK-10 cells assessed as cell growth inhibition measured after 48 hrs by SRB method; type: functional, cell-based
Leukemia cell = assay: Anti-cancer activity against human leukemia cells assessed as cell growth inhibition measured after 48 hrs by SRB method; type: functional
[1] = Anti-cancer activity against human colon cancer cells assessed as cell growth inhibition measured after 48 hrs by SRB method; type: functional; conditions: Colon cancer cell line
Tubulin (Homo sapiens) = Tubulin (Homo sapiens) (UniProt P68371+Q9H4B7+P0DPH7+P68366+Q13509+Q71U36+P04350+Q3ZCM7+P07437+P68363+Q9BQE3+Q6PEY2+Q13885+Q9BVA1+Q9BUF5); assay: Inhibition of tubulin (unknown origin) assessed as inhibition of tubulin polymerization at 10 uM measured for 50 mins by fluorescence based analysis; type: protein-complex assay
[2] = Anti-cancer activity against human non-small lung cancer cells assessed as cell growth inhibition measured after 48 hrs by SRB method; type: functional; conditions: Non-small cell lung cancer cell line
[3] = Anti-cancer activity against human renal cancer cells assessed as cell growth inhibition measured after 48 hrs by SRB method; type: functional; conditions: Renal cancer cell line
A498 = assay: Anti-cancer activity against human A498 cells assessed as cell growth inhibition measured after 48 hrs by SRB method; type: functional, cell-based

`C1=C2CNCC3=Cc4c(ccc5ccccc45)OC23Oc2ccc3ccccc3c21` gave an IC50 (RPMI-8226; RPMI-8226, 48 h) of 13.8 µM, a GI50 (RPMI-8226; RPMI-8226, time 48 hrs) of 5.5 µM and a TGI (RPMI-8226; RPMI-8226, time 48 hrs) of 64.6 µM. For the same molecule, the CC50 (RPMI-8226; RPMI-8226, time 48 hrs, read-out: LC50 (the source's name)) was 4 µM, the IC50 (LOX IMVI; 48 h) was 3.39 µM and the GI50 (LOX IMVI; time 48 hrs) was 2.45 µM. For the same molecule, the LC50 (50% lethal concentration) (LOX IMVI; time 48 hrs) was 4 µM, the TGI (LOX IMVI; time 48 hrs) was 7.41 µM and the IC50 (CCRF-CEM; 48 h) was 5.37 µM. For the same molecule, the GI50 (CCRF-CEM; time 48 hrs) was 3.63 µM, the TGI (CCRF-CEM; time 48 hrs) was 100 µM and the CC50 (CCRF-CEM; time 48 hrs, read-out: LC50 (the source's name)) was 4 µM. For the same molecule, the IC50 (COLO 205; COLO 205, 48 h) was 3.72 µM, the GI50 (COLO 205; COLO 205, time 48 hrs) was 2.09 µM and the TGI (COLO 205; COLO 205, time 48 hrs) was 4.27 µM. The CC50 (COLO 205; COLO 205, time 48 hrs, read-out: LC50 (the source's name)) was 5.07 µM, the IC50 (HCC 2998; HCC 2998, 48 h) was 8.51 µM and the GI50 (HCC 2998; HCC 2998, time 48 hrs) was 3.98 µM. It also gave an LC50 (lethal concentration, 50% cell kill) (HCC 2998; HCC 2998, time 48 hrs) of 4.11 µM, a TGI (HCC 2998; HCC 2998, time 48 hrs) of 19.5 µM and an IC50 (SW-620; SW-620, 48 h) of 3.09 µM. It also gave a GI50 (SW-620; SW-620, time 48 hrs) of 2.51 µM, a TGI (SW-620; SW-620, time 48 hrs) of 10.5 µM and a CC50 (SW-620; SW-620, time 48 hrs, read-out: LC50 (the source's name)) of 4.28 µM. It also gave an IC50 (SF-268; SF-268, 48 h) of 12.3 µM, a GI50 (SF-268; SF-268, time 48 hrs) of 5.62 µM and a TGI (SF-268; SF-268, time 48 hrs) of 22.4 µM. The CC50 (SF-268; SF-268, time 48 hrs, read-out: LC50 (the source's name)) was 4.15 µM, the IC50 (SNB-75; SNB-75, 48 h) was 11.2 µM and the GI50 (SNB-75; SNB-75, time 48 hrs) was 2.34 µM. It also gave an LC50 (SNB-75; SNB-75, time 48 hrs) of 4.18 µM, a TGI (SNB-75; SNB-75, time 48 hrs) of 11.5 µM and an IC50 (M14; M14, 48 h) of 3.8 µM. For the same molecule, the GI50 (M14; M14, time 48 hrs) was 2.19 µM, the TGI (M14; M14, time 48 hrs) was 5.13 µM and the CC50 (M14; M14, time 48 hrs, read-out: LC50 (the source's name)) was 4.56 µM. For the same molecule, the IC50 (MDA-MB-435; MDA-MB-435, 48 h) was 2.4 µM, the GI50 (MDA-MB-435; MDA-MB-435, time 48 hrs) was 1.41 µM and the TGI (MDA-MB-435; MDA-MB-435, time 48 hrs) was 3.24 µM. For the same molecule, the IC50 (SK-MEL-2; SK-MEL-2, 48 h) was 25.7 µM, the GI50 (SK-MEL-2; SK-MEL-2, time 48 hrs) was 5.5 µM and the TGI (SK-MEL-2; SK-MEL-2, time 48 hrs) was 22.9 µM. It also gave a CC50 (SK-MEL-2; SK-MEL-2, time 48 hrs, read-out: LC50 (the source's name)) of 4.03 µM, an IC50 (UACC-257; UACC-257, 48 h) of 37.2 µM and a GI50 (UACC-257; UACC-257, time 48 hrs) of 12.6 µM. It also gave an LC50 (50% lethal concentration) (UACC-257; UACC-257, time 48 hrs) of 4 µM, a TGI (UACC-257; UACC-257, time 48 hrs) of 38.9 µM and an IC50 (UACC-62; UACC-62, 48 h) of 12.9 µM. The GI50 (UACC-62; UACC-62, time 48 hrs) was 5.01 µM, the LC50 (50% lethal concentration) (UACC-62; UACC-62, time 48 hrs) was 4.16 µM and the TGI (UACC-62; UACC-62, time 48 hrs) was 21.9 µM. For the same molecule, the IC50 (IGROV-1; IGROV-1, 48 h) was 20.9 µM, the GI50 (IGROV-1; IGROV-1, time 48 hrs) was 9.55 µM and the LC50 (concentration killing 50% of cells) (IGROV-1; IGROV-1, time 48 hrs) was 4.08 µM. For the same molecule, the TGI (IGROV-1; IGROV-1, time 48 hrs) was 28.8 µM, the IC50 (MCF7; MCF7, 48 h) was 3.98 µM and the GI50 (MCF7; MCF7, time 48 hrs) was 2.82 µM. The TGI (MCF7; MCF7, time 48 hrs) was 12.6 µM, the CC50 (MCF7; MCF7, time 48 hrs, read-out: LC50 (the source's name)) was 4.26 µM and the IC50 (MDA-MB-468; MDA-MB-468, 48 h) was 5.89 µM. For the same molecule, the GI50 (MDA-MB-468; MDA-MB-468, time 48 hrs) was 2.04 µM, the TGI (MDA-MB-468; MDA-MB-468, time 48 hrs) was 7.59 µM and the CC50 (MDA-MB-468; MDA-MB-468, time 48 hrs, read-out: LC50 (the source's name)) was 4.32 µM. The IC50 (HOP-62; HOP-62, 48 h) was 12.3 µM, the GI50 (HOP-62; HOP-62, time 48 hrs) was 4.47 µM and the TGI (HOP-62; HOP-62, time 48 hrs) was 16.6 µM. The IC50 (786-0; 786-0, 48 h) was 9.55 µM, the GI50 (786-0; 786-0, time 48 hrs) was 5.13 µM and the TGI (786-0; 786-0, time 48 hrs) was 31.6 µM. The IC50 (CAKI-1; CAKI-1, 48 h) was 12 µM, the GI50 (CAKI-1; CAKI-1, time 48 hrs) was 3.31 µM and the TGI (CAKI-1; CAKI-1, time 48 hrs) was 20.9 µM. The CC50 (CAKI-1; CAKI-1, time 48 hrs, read-out: LC50 (the source's name)) was 4.07 µM, the IC50 (RXF 393; RXF 393, 48 h) was 5.01 µM and the GI50 (RXF 393; RXF 393, time 48 hrs) was 1.78 µM. It also gave a TGI (RXF 393; RXF 393, time 48 hrs) of 6.17 µM, a CC50 (RXF 393; RXF 393, time 48 hrs, read-out: LC50 (the source's name)) of 4.32 µM and an IC50 (TK-10; TK-10, 48 h) of 26.9 µM. For the same molecule, the GI50 (TK-10; TK-10, time 48 hrs) was 9.12 µM, the TGI (TK-10; TK-10, time 48 hrs) was 27.5 µM and the GI50 (Leukemia cell) was 3.16 µM. For the same molecule, the GI50 [1] was 3.09 µM, the inhibition (Tubulin (Homo sapiens)) was “Active” and the GI50 [2] was 5.13 µM. The GI50 [3] was 3.98 µM, the IC50 (A498; A498, 48 h) was 16.2 µM and the GI50 (A498; A498, time 48 hrs) was 3.89 µM. For the same molecule, the TGI (A498; A498, time 48 hrs) was 17 µM and the CC50 (A498; A498, time 48 hrs, read-out: LC50 (the source's name)) was 4.34 µM.
